Data as given in paper PMC5124248, “Antitumor activity of TY-011 against gastric cancer by inhibiting Aurora A, Aurora B and VEGFR2 kinases” (Journal of Experimental & Clinical Cancer Research : CR, 2016).
Where two headings read alike, the source gives them in different places.

Legend:
SGC-7901 cells = assay: Annexin V/PI apoptosis analysis, SGC-7901; assay type: cell-based, human; details: 48 h (14.1% control)
Protocol: (§1) Apoptosis was detected by FITC Annexin V Apoptosis Detection Kit I according to the manufacturer’s instructions (Dojindo, Kumamoto, Japan) to determine the phosphatidyl serine exposure. Apoptotic cells were quantified by a flow cytometer (Guava EasyCyte 6HT-2 L, Merck Millipore, Billerica, MA, USA) using the InCyte software. At least 10 000 cells were analyzed for each data point.

[1] = system: 5 gastric cancer cell lines; assay: CCK-8 cell proliferation assay, panel of 5 gastric cancer cell lines; assay type: cell-based; details: Homo sapiens; range over SNU-16, MKN-45, MGC-803, SGC-7901, AGS; read-out: IC50 values across 5 gastric cancer cell lines
Protocol: (§2) During the logarithmic growth phase, each cell line was seeded in a 96-well tissue culture plate (Thermo Fisher Scientific, Waltham, MA, USA) at a predetermined density in complete medium, attached overnight and treated with compound for the indicated time. The medium was discarded and replaced with 10% CCK-8 (Dojindo, Kumamoto, Japan) in complete medium, then incubated the plates for another 2 h. The OD450 was measured with SpectraMax M5 (Molecular Devices, CA, USA). A background absorbance of ODblank was subtracted from all wells. The survival rate was determined with following formula: Survival rate (%) = ODcompound/ODDMSO × 100%. The IC50 values were calculated by concentration − response curve fitting using the four parameter method.

MKN-45 cells = assay: CCK-8 cell proliferation assay, MKN-45; assay type: cell-based; details: Homo sapiens; MKN-45, CCK-8, Fig. 3
Protocol: as §2

HUVECs = assay: VEGF- or FBS-induced HUVEC proliferation assay (CCK-8); assay type: cell-based, human; details: for IC50: Homo sapiens, HUVEC
Protocol: as §2
In VEGF-induced HUVEC proliferation assay, HUVECs cells were seeded in a 96-well tissue culture plate at a predetermined density in HUVEC basic medium with 0.5% FBS. After the cells attached, cells were treated with different concentration of TY-011 in the presence of 50 ng/ml VEGF165 (R&D systems, Minneapolis, MN, USA) or 10% FBS. The CCK-8 assay as above was used for determination of cell viability.

VEGFR2 = biological target: T1, VEGFR2 (Homo sapiens, UniProt P35968); assay: HTRF KinEASE-TK kinase assay, VEGFR2; assay type: biochemical; details: mean ± SD of three independent experiments
T1 construct: purchased Carna Biosciences (Kobe, Japan)
T1 sequence (P35968 790-1356 limits assumed): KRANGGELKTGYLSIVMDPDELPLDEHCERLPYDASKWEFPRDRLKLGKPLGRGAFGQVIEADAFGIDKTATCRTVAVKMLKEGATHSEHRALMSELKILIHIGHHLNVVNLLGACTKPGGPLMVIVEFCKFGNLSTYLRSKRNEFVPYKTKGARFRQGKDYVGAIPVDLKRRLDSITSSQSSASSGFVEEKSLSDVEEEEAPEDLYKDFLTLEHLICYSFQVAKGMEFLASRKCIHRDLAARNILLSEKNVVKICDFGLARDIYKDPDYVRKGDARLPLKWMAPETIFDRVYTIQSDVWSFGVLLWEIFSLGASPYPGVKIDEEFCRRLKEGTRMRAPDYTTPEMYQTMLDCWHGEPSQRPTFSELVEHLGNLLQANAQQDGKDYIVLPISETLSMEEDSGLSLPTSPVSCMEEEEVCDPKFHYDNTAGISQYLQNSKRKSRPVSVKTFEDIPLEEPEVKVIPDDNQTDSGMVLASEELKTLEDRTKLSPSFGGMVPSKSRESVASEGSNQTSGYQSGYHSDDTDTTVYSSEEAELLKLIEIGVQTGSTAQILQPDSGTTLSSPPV
Text: The inhibition of TY-011 on activity of Aurora A, Aurora B and VEGFR2 was characterized by HTRF® KinEASE™-STK/TK kit according to the manufacturer’s instructions (Cisbio Assays, Codolet, France). Aurora A and Aurora B were gifts from Professor Jia Li, Shanghai Institute of Materia Medica/Chinese Academy of Sciences. VEGFR2 was purchased from Carna Biosciences (Kobe, Japan).

p-Aurora A (T288) = assay: Cellular Aurora A phosphorylation (western blot, immunofluorescence) in MGC-803 cells; assay type: cell-based, human
Protocol: The proteins of whole cell lysates were prepared in RIPA buffer containing protease and phosphatase inhibitors (Thermo Fisher Scientific, Waltham, MA, USA), and quantified by the bicinchoninic acid (BCA) method. Immunoblotting analysis of proteins in cell lysates was performed as previously described. Primary antibodies used were as follows: anti-Aurora A (#12100), anti-p-Aurora A (Thr288) (#3079), anti-Histone H3 (#4499), and anti-p-Histone H3 (Ser10) (#9701), and anti-cleaved caspase 3 (#9661) were purchased from Cell Signaling Technology (Danvers, MA, USA); anti-PARP-1 (#sc-8007) and anti-GAPDH (#sc-25778) were purchased from Santa Cruz (CA, USA).
Cells were cultured on glass slides coated with 0.05 mg/ml PDL (Sigma-aldrich, St. Louis, MO, USA) in the presence of TY-011 (0.8 μM) or equivalent amount of DMSO for 24 h. The cells were fixed in 4% paraformaldehyde at room temperature, then permeabilized with 0.15% Triton-X100 and blocked in 3% BSA in PBS. The primary antibodies were incubated with slides at 1:100 dilution in PBS containing 3% BSA in a wet chamber at 4 °C overnight. […] The images were captured with FCFM (fluorescence confocal microscope) (Olympus FV1000 IX81, Tokyo, Japan) under appropriate excitation and emission filters or phase-contrast microscope (Olympus IX73, Tokyo, Japan). […]

MGC-803 cells = assay: Annexin V/PI apoptosis analysis, MGC-803; assay type: cell-based, human; details: 48 h (7.8% control)
Protocol: as §1

## CCc1cc2c(cn1)C(c1ccccc1Cl)=Nc1c(n[nH]c1C)N2 [TY-011, 9-(2-chloro-phenyl)-6-ephyl-1-methyl-2,4-dihydro-2,3,4,7,10-pentaaza-benzo[f]azulene]
SGC-7901 cells; SGC-7901, 0.25 μM
  apoptotic cells: 17.2%
SGC-7901 cells; SGC-7901, 0.5 μM
  apoptotic cells: 28.4%
SGC-7901 cells; SGC-7901, 1 μM
  apoptotic cells: 54.3%
[1]
  IC50: 90 to 960 nM
MKN-45 cells
  IC50: 130 ± 10 nM
HUVECs; 72 h
  IC50 in cells treated with VEGF lower than in cells treated with FBS: 13 fold
HUVECs; 50 ng/ml VEGF165, 72 h, read-out: VEGF IC50
  IC50: 461 ± 61.8 nM
HUVECs; 10% FBS, 72 h, read-out: FBS IC50
  IC50: 6100 ± 16.4 nM
VEGFR2
  IC50: 103 ± 6.2 nM
p-Aurora A (T288); MGC-803, 0.8 μM, 24 h
  Aurora A green foci in mitotic cells, immunofluorescence: became weaker or even disappeared
p-Aurora A (T288); MGC-803 synchronized with nocodazole (100 nM) 16 h, then various concentrations for 24 h
  p-Aurora A (T288), western blot: decreased in a concentration-dependent manner
MGC-803 cells; MGC-803, 0.1 μM
  apoptosis: 39.3%
MGC-803 cells; MGC-803, 0.2 μM
  apoptosis: 78.2%
MGC-803 cells; MGC-803, 0.4 μM
  apoptosis: 86.1%
